One experiment concerns NMDA receptor. Briefly: [3H]MK-801 displacement radioligand binding, rat forebrain membranes. The settings on record: for IC50: displacement of [3H]MK-801, rat forebrain membranes, read-out: NMDA BINDING IC50. The protocol: The identification of possible recognition sites for PRS-211 analogs was carried out by measuring the ability of these PRS-211 analogs to inhibit the binding of MK-801 to rat forebrain membranes.
Brains were removed from Sprague-Dawley rats no more than 5 min after decapitation. Membrane preparations were isolated according to a procedure described previously (Eshhar et al., Brain Res. 476:57, 1989). Prior to radioligand binding measurements, endogenous glutamate present in membranes was removed from the preparation by subjecting the membranes to 3–4 successive washings in 10 mM Tris HCl pH 7.2, performed at 4° C.
The specific binding of the new analogs to NMDA receptors was determined by their ability to displace [^3H]MK-801 from NMDA receptor in rat forebrain preparations. Specifically, rat-forebrain membranes (0.1 mg) were incubated for 2 hours at room temperature with 10 nM of tritiated MK-801 and with the PRS-211 compounds at 3 doses each. Non-specific binding was determined by the use of 0.1 mM MK-801. Following the incubation, bound radioligand was separated from unbound by filtration through GF/B filters. The filters were counted in a β-counter and log of analog concentrations versus % of [^3H]MK-801 specific binding was plotted. The IC50 was calculated from this plot.
Binding of [^3H]MK-801 to membranes was carried out in the presence of 30 μM glycine and 10 μM L-glutamate. Membranes (250 μg protein) were resuspended in 50 mM tris-acetate pH 7.4 buffer and incubated with 10 nM [^3H]MK-801, either alone or in the presence of PRS-211 compounds at 0.1–100 μM concentrations for three hours at room temperature (RT). Reaction buffers used in the different radioligand binding studies contained 10% of an ethanol/Emulphor 620/deionized water mixture. The ratio (by volume) of the respective components in the mixture was 20/3/57. This mixture is required for solubilizing PRS-211 compounds at concentrations above 30 μM. Reaction volume was 1 ml. Non-specific [^3H]MK-801 binding was determined in the presence of 100 μM unlabeled MK-801.
Concentration dependence of certain PRS-211 analogs on inhibition of [^3H]MK-801 binding is illustrated in FIG. 1.
Background: Loss of bound radioactivity is the signal in a displacement assay; it reports binding, not function.

Another experiment deals with TNFα. Briefly: Inhibition of TNFα in LPS-activated macrophage cell cultures (ELISA). The class given is cell-based. The protocol: Specific aspects of the inflammatory response cascade are mediated by the cytokine TNFα. Inhibition of TNFα production and/or inhibition of TNFα release by the new analogs are assayed in macrophage cell cultures activated with LPS. This serves as another indication of the general anti-inflammatory potential of the novel compounds.
The method for macrophage cell culture growth is identical to the one described in PGE2 assay. Aliquots of the supernatants collected following stimulation with LPS were quantitated for TNFα by enzyme linked immunosorbent assay (ELISA) using HRP conjugated to anti-TNFα antibodies and […] for the colorimetric reaction. The peroxidase catalyzed color reaction was stopped by acidification and the absorbance at 450 nm is measured. The absorbance at this wavelength is proportional to the concentration of TNFα in the sample determined from a standard curve plotting the concentrations of TNFα standards versus their absorbance.
For orientation: An ELISA detects its analyte on a solid surface through an enzyme-linked reagent.

Experiment [1] has as its system T1, nitric oxide synthase (NOS).
T1 construct: endogenous in cells
Briefly: Inhibition of nitric oxide synthase, fluorimetric nitrite assay in LPS-stimulated macrophage supernatants. The class given is cell-based. The following applies: macrophage cell cultures. The protocol:
As one aspect of the anti-oxidative potential of the novel analogs they were tested for their ability to inhibit the enzyme nitric oxide synthase (NOS). This assay can also serve as another indication of the anti-inflammatory cascade, as well as the anti-oxidative mechanisms.
The final products of NOS are Nitrite (NO2) and Nitrate (NO3). The in vitro fluorimetric assay provides an accurate method for the measurement of the Nitrite, which is the majority of NO products. The principle of the fluorimetric assay is based on the addition of DAN (2,3-diaminonaphthalene) to the aliquots of the supernatants collected from macrophage cell cultures incubated with the new analogs and stimulated with LPS. Following, NaOH was added to convert Nitrite to a fluorescent compound 1(H)-naphthtriazole. The fluorescence was measured immediately in a fluorimeter using excitation wavelength of 365 nm and an emission wavelength of 450 nm.

In a further experiment the test system is cannabimimetic activity. The following applies: in vivo; cited from earlier work.

We go through 4 molecules from patent US7235584B2, “Non-psychotropic cannabinoids” (Pharmos Corporation, priority 2000, dated 2007).

For orientation: IC50 means the concentration at which inhibition is half-maximal. One may read the inhibition as the share of the control response that was lost under treatment. Read a low inhibition as a response near the control.

Each structure is given as a SMILES string.

T1 sequence (P35228 whole entry): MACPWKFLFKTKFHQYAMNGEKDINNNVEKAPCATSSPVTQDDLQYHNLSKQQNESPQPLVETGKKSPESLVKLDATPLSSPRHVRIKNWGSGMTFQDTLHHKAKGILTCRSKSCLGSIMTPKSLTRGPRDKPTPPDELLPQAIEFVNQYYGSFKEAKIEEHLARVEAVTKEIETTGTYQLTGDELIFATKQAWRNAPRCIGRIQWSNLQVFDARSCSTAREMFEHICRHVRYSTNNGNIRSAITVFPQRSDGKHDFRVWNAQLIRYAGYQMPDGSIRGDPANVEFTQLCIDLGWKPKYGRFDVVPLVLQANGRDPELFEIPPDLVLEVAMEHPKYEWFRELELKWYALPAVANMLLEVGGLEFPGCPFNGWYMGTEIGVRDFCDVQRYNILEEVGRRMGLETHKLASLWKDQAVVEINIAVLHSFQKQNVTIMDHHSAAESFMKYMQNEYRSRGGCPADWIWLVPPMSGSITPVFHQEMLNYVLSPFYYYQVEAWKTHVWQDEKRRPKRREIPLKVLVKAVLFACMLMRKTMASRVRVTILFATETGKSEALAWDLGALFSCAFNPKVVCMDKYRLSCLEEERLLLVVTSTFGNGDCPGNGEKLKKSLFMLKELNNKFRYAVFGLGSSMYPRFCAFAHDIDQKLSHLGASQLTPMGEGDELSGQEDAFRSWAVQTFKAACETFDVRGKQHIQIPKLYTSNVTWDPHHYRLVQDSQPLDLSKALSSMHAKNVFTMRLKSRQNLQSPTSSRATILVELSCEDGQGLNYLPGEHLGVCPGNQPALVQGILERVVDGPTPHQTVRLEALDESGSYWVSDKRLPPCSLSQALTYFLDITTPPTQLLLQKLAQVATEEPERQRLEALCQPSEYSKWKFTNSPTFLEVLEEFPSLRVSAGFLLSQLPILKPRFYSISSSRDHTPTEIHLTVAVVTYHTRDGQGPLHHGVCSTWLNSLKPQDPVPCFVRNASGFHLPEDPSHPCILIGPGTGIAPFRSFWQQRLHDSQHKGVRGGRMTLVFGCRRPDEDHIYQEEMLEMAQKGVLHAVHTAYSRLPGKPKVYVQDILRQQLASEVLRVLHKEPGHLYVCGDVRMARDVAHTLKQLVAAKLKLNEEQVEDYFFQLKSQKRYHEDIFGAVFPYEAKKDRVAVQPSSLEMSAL

As for `CCCCCCC(C)(C)c1cc(O)c2c(c1)OC(C)(C)[C@H]1CC=C(CN3CCC(N4CCCCC4)CC3)CC21` (single isomer, unassigned; (+)) [211,257-000], in the experiment on NMDA receptor, the “NMDA receptor binding / affinity (in words)” value is “do not exhibit substantial NMDA receptor binding” and the IC50 is above 100 µM. In addition, in the experiment with TNFα, 10 µM produced 10% inhibition. This molecule also yielded an inhibition at 10 µM in experiment [1] of 39%.

With `CCCCCCC(C)(C)c1cc(O)c2c(c1)OC(C)(C)[C@H]1CC=C(CN3CCC(N4CCCC4)CC3)C[C@H]21` [211,253-000], in the experiment on NMDA receptor, the “NMDA receptor binding / affinity (in words)” value is “do not exhibit substantial NMDA receptor binding” and the half-maximal inhibitory concentration (IC50) is above 100 µM. In the experiment with TNFα, this molecule had an inhibition at 10 µM of 0%. The inhibition at 10 µM in experiment [1] was found to be 27%.

For `CCCCCCC(C)(C)c1cc(O)c2c(c1)OC(C)(C)[C@H]1CC=C(CN(Cc3ccccc3)c3ccccc3)C[C@H]21` [211,255-000], in the experiment on NMDA receptor, the “NMDA receptor binding / affinity (in words)” value is listed as “do not exhibit substantial NMDA receptor binding” and the IC50 was above 100 µM. The inhibition at 10 µM with TNFα came out at 0%. In addition, in experiment [1], the inhibition at 10 µM is 7%.

In the case of `CCCCCCC(C)(C)c1cc(O)c2c(c1)OC(C)(C)[C@@H]1CC=C(CO)C[C@@H]21` [HU-210], the “cannabimimetic activity relative to Δ-1-tetrahydrocannabinol” value in the experiment on cannabimimetic activity is recorded as around 100 times.
